How the values were obtained:
NCI-N87-Luc = experiment: Antitumor effect (in vivo) on direct brain transplantation models of NCI-N87-Luc; set-up: species or system nude mouse (BALB/cAJcl-nu/nu); conditions: Days 1-21
Text: In order to confirm the antitumor effects of a test compound on direct brain transplantation models, NCI-N87-Luc, which was obtained by introducing a luciferase gene into NCI-N87 that was a human stomach cancer tumor cell line purchased from American Type Culture Collection, was used.
The NCI-N87-Luc cells were re-suspended in PBS in a concentration of 6.25×10^7 cells/mL.
Using a mouse ear bar, a nude mouse with 6 to 7 weeks old (BALB/cAJcl-nu/nu, CLEA Japan, Inc.) was fixed in a brain stereotaxic apparatus, and the skin on the upper brain portion was disinfected with alcohol cotton and was then excised with a surgical knife.
A microdrill was used to drill a hole in the skull, and then, using a needle, a manipulator, and a syringe pump, 4 μL of the cell suspension was transplanted into the brain at a rate of 0.8 μL/min.
As a reference of the amount of brain tumor, approximately 3 weeks after the transplantation, Total Flux (Photon/sec) was measured in all of the survival cases, using IVIS (PerkinElmer, Inc., model: Lumina II). Based on the obtained results, 6 animals were assigned to each group, using the grouping program of MiSTAT (Ver. 2.00).
(§1) The test compound was orally administered to the mice once a day, every day, for 21 days from the following day of the grouping (Days 1-21).
(§2) For judgment of the presence or absence of effects, the value (Log 10) obtained by logarithmic transformation of the total flux on the judgment date was used. The test compound was administered to the mice at a dose of 25 mg/kg/day in Example 2 and Example 11, whereas it was administered at a dose of 50 mg/kg/day in Example 12.
A graph was prepared with the value obtained by logarithmic transformation (Log 10) of the average total flux of each group as a vertical axis, and with the number of days (Day) after the transplantation as a horizontal axis. The transition of the total flux over time in the drug administration period was observed. […]
(§3) The value obtained by logarithmic transformation (Log 10) of the total flux on Day 22 in each group was analyzed by a Dunnett test or a Student-t test.

[1] = Body weight change in NCI-N87-Luc direct brain transplantation models; assay type: in vivo, nude mouse (BALB/cAJcl-nu/nu); conditions: oral 25 mg/kg/day, Days 1-21, nude mice
Procedure: as §1, §2, §3

NCI-N87 cells = experiment: Growth inhibitory activity against HER2 expressing cell line NCI-N87; assay type: cell-based; conditions: Homo sapiens, NCI-N87, 72 h; 3 days, CellTiter-Glo 2.0
Procedure: NCI-N87 cells as a HER2 overexpressing human stomach cancer cell line (American Type Culture Collection, Cat No. ATCC (registered trademark) CRL-5822) were suspended in an RPMI640 medium (Wako Pure Chemical Industries, Ltd.) supplemented with 10% fetal bovine serum. Subsequently, the cell suspension was seeded in each well of a 96-well flat-bottom microplate, and was then cultured in a 5% carbon dioxide gas-containing culture vessel at 37° C. for 1 day. Thereafter, the compound of the present invention was dissolved in DMSO, and the compound was diluted to 1000 times the final concentration in DMSO. The compound in the DMSO solution was diluted with the medium used in the suspension of the cells, and the obtained solution was then added to each well of the culture plate, so that the final concentration of DMSO became 0.1%. Regarding a control well, DMSO was diluted with the medium used in the suspension of the cells, and the obtained solution was then added to each well of the culture plate, so that the final concentration of DMSO became 0.1%. After addition of a drug solution, the obtained mixture was further cultured in the 5% carbon dioxide gas-containing culture vessel at 37° C. for 3 days. After completion of the culture for 3 days in the presence of the compound, the cells were counted using CellTiter-Glo 2.0 (manufactured by Promega) in accordance with the protocols recommended by Promega. The growth inhibition percentage was calculated according to the following equation. […] Growth inhibitory percentage (%)=(C−T)/(C)×100 T: Emission intensity from the well to which the test compound was added C: Emission intensity from the well to which the test compound was not added

For `C=CC(=O)N1C[C@H](n2c(C#CC3CC3)c(C(=O)N[C@H](C)c3ccccc3)c3c(N)ncnc32)C[C@@H]1C` [Example 11, 7-((3R,5S)-1-acryloyl-5-methylpyrrolidin-3-yl)-4-amino-6-(cyclopropylethynyl)-N—((R)-1-phenylethyl)-7H-pyrrolo[2,3-d]pyrimidine-5-carboxamide], the “Log 10 of total flux on Day 22 versus control group” value (NCI-N87-Luc; oral 25 mg/kg/day once a day) was “statistically significantly lower”, the “body weight reduction of −20% or more” value [1] was “not observed” and the IC50 (NCI-N87 cells) was 9.9 nM.
For `C=CC(=O)N1C[C@H](n2c(C#CCC)c(C(=O)N[C@H](C)c3ccccc3)c3c(N)ncnc32)C[C@@H]1C` [Example 14, 7-((3R,5S)-1-acryloyl-5-methylpyrrolidin-3-yl)-4-amino-6-(but-1-yn-1-yl)-N—((R)-1-phenylethyl)-7H-pyrrolo[2,3-d]pyrimidine-5-carboxamide], the IC50 (NCI-N87 cells) was 9.1 nM.
For `C=CC(=O)N1C[C@H](n2c(C#CC)c(C(=O)N[C@H](C)c3ccccc3)c3c(N)ncnc32)C[C@@H]1C` [Example 2, 7-((3R,5S)-1-acryloyl-5-methylpyrrolidin-3-yl)-4-amino-N—((R)-1-phenylethyl)-6-(prop-1-yn-1-yl)-7H-pyrrolo[2,3-d]pyrimidine-5-carboxamide], the “Log 10 of total flux on Day 22 versus control group” value (NCI-N87-Luc; oral 25 mg/kg/day once a day) was “statistically significantly lower”, the “body weight reduction of −20% or more” value [1] was “not observed” and the IC50 (NCI-N87 cells) was 3 nM.
In the case of `C=CC(=O)N1C[C@H](n2c(C#CC3CC3)c(C(=O)N[C@H](C)c3cccc(F)c3F)c3c(N)ncnc32)C[C@@H]1C` [Example 10, 7-((3R,5S)-1-acryloyl-5-methylpyrrolidin-3-yl)-4-amino-6-(cyclopropylethynyl)-N—((R)-1-(2,3-difluorophenyl)ethyl)-7H-pyrrolo[2,3-d]pyrimidine-5-carboxamide], the IC50 (NCI-N87 cells) is reported as 10.5 nM.
For `C=CC(=O)N1C[C@H](n2c(C#CC3CC3)c(C(=O)N[C@H](C)c3ccccc3)c3c(N)ncnc32)C[C@@H]1COC` [Example 18, 7-((3R,5R)-1-acryloyl-5-(methoxymethyl)pyrrolidin-3-yl)-4-amino-6-(cyclopropylethynyl)-N—((R)-1-phenylethyl)-7H-pyrrolo[2,3-d]pyrimidine-5-carboxamide], the IC50 (NCI-N87 cells) was 2.6 nM.
`C=CC(=O)N1C[C@H](n2c(C#CC)c(C(=O)N[C@H](C)c3ccccc3)c3c(N)ncnc32)C[C@@H]1CC` [Example 16, 7-((3R,5S)-1-acryloyl-5-ethylpyrrolidin-3-yl)-4-amino-N—((R)-1-phenylethyl)-6-(prop-1-yn-1-yl)-7H-pyrrolo[2,3-d]pyrimidine-5-carboxamide] showed an IC50 (NCI-N87 cells) of 0.9 nM.
Work on `C=CC(=O)N1C[C@H](n2c(C#CC)c(C(=O)N[C@H](C)c3cccc(Cl)c3)c3c(N)ncnc32)C[C@@H]1C` [Example 6, 7-((3R,5S)-1-acryloyl-5-methylpyrrolidin-3-yl)-4-amino-N—((R)-1-(3-chlorophenyl)ethyl)-6-(prop-1-yn-1-yl)-7H-pyrrolo[2,3-d]pyrimidine-5-carboxamide] yielded an IC50 (NCI-N87 cells) of 8.5 nM.
In the case of `C=CC(=O)N1C[C@H](n2c(C#CC)c(C(=O)N[C@@H](c3ccccc3)C(F)(F)F)c3c(N)ncnc32)C[C@@H]1C` [Example 8, 7-((3R,5S)-1-acryloyl-5-methylpyrrolidin-3-yl)-4-amino-6-(prop-1-yn-1-yl)-N—((S)-2,2,2-trifluoro-1-phenylethyl)-7H-pyrrolo[2,3-d]pyrimidine-5-carboxamide], the IC50 (NCI-N87 cells) is reported as 9.7 nM.
Compound `C=CC(=O)N1C[C@H](n2c(C#CC(C)(C)OC)c(C(=O)N[C@H](C)c3ccccc3)c3c(N)ncnc32)C[C@@H]1C` [Example 13, 7-((3R,5S)-1-acryloyl-5-methylpyrrolidin-3-yl)-4-amino-6-(3-methoxy-3-methylbut-1-yn-1-yl)-N—((R)-1-phenylethyl)-7H-pyrrolo[2,3-d]pyrimidine-5-carboxamide] has an IC50 (NCI-N87 cells) of 11.7 nM.
With `C=CC(=O)N1C[C@H](n2c(C#CC)c(C(=O)N[C@H](CC)c3ccccc3)c3c(N)ncnc32)C[C@@H]1C` [Example 4, 7-((3R,5S)-1-acryloyl-5-methylpyrrolidin-3-yl)-4-amino-N—((R)-1-phenylpropyl)-6-(prop-1-yn-1-yl)-7H-pyrrolo[2,3-d]pyrimidine-5-carboxamide] the IC50 (NCI-N87 cells) was 5.6 nM.
`C=CC(=O)N1C[C@H](n2c(C#CC3CC3)c(C(=O)N[C@H](C)c3ccccc3)c3c(N)ncnc32)C[C@@H]1CC` [Example 17, 7-((3R,5S)-1-acryloyl-5-ethylpyrrolidin-3-yl)-4-amino-6-(cyclopropylethynyl)-N—((R)-1-phenylethyl)-7H-pyrrolo[2,3-d]pyrimidine-5-carboxamide] showed an IC50 (NCI-N87 cells) of 2.2 nM.
`C=CC(=O)N1C[C@H](n2c(C#CC)c(C(=O)NC(C)(C)c3ccccc3)c3c(N)ncnc32)C[C@@H]1C` [Example 3, 7-((3R,5S)-1-acryloyl-5-methylpyrrolidin-3-yl)-4-amino-N-(2-phenylpropan-2-yl)-6-(prop-1-yn-1-yl)-7H-pyrrolo[2,3-d]pyrimidine-5-carboxamide] gave an IC50 (NCI-N87 cells) of 4.7 nM.
In the case of `C=CC(=O)N1C[C@H](n2c(C#CC3CC3)c(C(=O)NC(C)(C)c3ccccc3)c3c(N)ncnc32)C[C@@H]1C` [Example 9, 7-((3R,5S)-1-acryloyl-5-methylpyrrolidin-3-yl)-4-amino-6-(cyclopropylethynyl)-N-(2-phenylpropan-2-yl)-7H-pyrrolo[2,3-d]pyrimidine-5-carboxamide], the IC50 (NCI-N87 cells) is reported as 6.2 nM.
Compound `C=CC(=O)N1C[C@H](n2c(C#CC)c(C(=O)NC(C)(C)c3ccccc3F)c3c(N)ncnc32)C[C@@H]1C` [Example 5, 7-((3R,5S)-1-acryloyl-5-methylpyrrolidin-3-yl)-4-amino-N-(2-(2-fluorophenyl)propan-2-yl)-6-(prop-1-yn-1-yl)-7H-pyrrolo[2,3-d]pyrimidine-5-carboxamide] has an IC50 (NCI-N87 cells) of 7 nM.
Work on `C=CC(=O)N1C[C@H](n2c(C#CC)c(C(=O)N[C@H](C)c3cc(F)cc(F)c3)c3c(N)ncnc32)C[C@@H]1C` [Example 1, 7-(R)-((3R,5S)-1-acryloyl-5-methylpyrrolidin-3-yl)-4-amino-N—((R)-1-(3,5-difluorophenyl)ethyl)-6-(prop-1-yn-1-yl)-7H-pyrrolo[2,3-d]pyrimidine-5-carboxamide] yielded an IC50 (NCI-N87 cells) of 10.7 nM.
In the case of `C=CC(=O)N1C[C@H](n2c(C#CC(C)(C)C)c(C(=O)N[C@H](C)c3ccccc3)c3c(N)ncnc32)C[C@@H]1C` [Example 12, 7-((3R,5S)-1-acryloyl-5-methylpyrrolidin-3-yl)-4-amino-6-(3,3-dimethylbut-1-yn-1-yl)-N—((R)-1-phenylethyl)-7H-pyrrolo[2,3-d]pyrimidine-5-carboxamide], the “Log 10 of total flux on Day 22 versus control group” value (NCI-N87-Luc; oral 50 mg/kg/day once a day) is reported as “statistically significantly lower” and the IC50 (NCI-N87 cells) is reported as 15 nM.

From patent publication US11078207B2, “Substituted pyrrolo[2,3-d]pyrimidines as HER2 inhibitors” (TAIHO PHARMACEUTICAL CO., LTD., priority 2019, dated 2021)
